Source: US20260053861A1, “CELL COMPOSITIONS AND METHODS OF USING THE SAME” (THE REGENTS OF THE UNIVERSITY OF CALIFORNIA, priority 2022, published 2026)
Where a name gives a salt, the structure may show the parent alone.

system: hPSC-SCs; conditions: not given

Compound | z.score.t
C(#CCN1CCCC1)CN1CCCC1.Cl.Cl [Tremorine dihydrochloride] | −0.4139
COP(=O)(OC)C(O)C(Cl)(Cl)Cl (stereo not drawn) [Trichlorfon] | −0.04944
COc1cc2c(c(OC)c1OC)-c1ccc(O)c(=O)cc1C(N)CC2 (stereo not drawn) [Trimethylcolchicinic acid] | −0.07901
CN1[C@@H]2CC[C@H]1C[C@@H](O)C2 [Tropine] | −0.6133
COc1cc2c3cc1Oc1cc(ccc1O)C[C@@H]1c4c(cc(OC)c(O)c4Oc4ccc(cc4)C[C@@H]3N(C)CC2)CC[N+]1(C)C.Cl.O.O.O.O.O.[Cl-] [Tubocurarine chloride pentahydrate (+)] | −1.166
Cc1cccc(C)c1N=C1NCCCS1 [Xylazine] | 1.75
O.O=C(O)[C@@H]1[C@H]2C[C@H]3c4[nH]c5ccccc5c4CCN3C[C@@H]2CC[C@@H]1O [Yohimbinic acid monohydrate] | −0.2065
CC1=C2[C@H]3OC(=O)[C@@H](C)[C@@H]3CC[C@@]2(C)C=CC1=O [alpha-Santonin] | −1.108
CC[N+]1(C)[C@@H]2CC[C@H]1CC(OC(=O)[C@@H]1CC[C@@](C(=O)OC3C[C@H]4CC[C@@H](C3)[N+]4(C)CC)(c3ccccc3)c3ccccc31)C2.[Cl-].[Cl-] (stereo partly drawn) [beta-Belladonnine dichloroethylate] | 1.872
(−)-MK 801 hydrogen maleate | 1.657
(−)-Quinpirole hydrochloride | 1.683
Antimycin A | −1.787
Avermectin B1 | 0.7158
Bromocryptine mesylate | −1.272
Butirosin disulfate salt | −0.5169
Colistin sulfate | −0.4139
Cotinine (−) | −0.139

Compound | z.score.t
Cyanocobalamin | 0.837
Cytisine (−) | −0.1641
Deptropine citrate | −0.247
Dihydroergotamine tartrate | −0.5417
Foliosidine | −0.2802
Guanadrel sulfate | 0.7158
Helveticoside | 1.053
Isoetharine mesylate salt | 0.5976
Lycorine hydrochloride | −2.213
Mephentermine hemisulfate | −0.2359
Merbromin | −0.7567
Pridinol methanesulfonate salt | −0.7183
Retrorsine | −0.3526
Solanine alpha | −0.2486
Tyloxapol | −1.008
Viomycin sulfate | −0.2329

same assay, conditions: HTS viability of hPSC-SCs in the presence of 30 mM glucose; Prestwick library; Table S4

Compound | z.score.t
O=c1n(CCCN2CCN(c3cccc(Cl)c3)CC2)nc2ccccn12 [Trazodone hydrochloride] | 0.4346
C[C@]12C=CC(=O)C=C1CC[C@H]1[C@@H]3C[C@@H](O)[C@](O)(C(=O)CO)[C@@]3(C)C[C@H](O)[C@@]12F [Triamcinolone] | 2.024
Nc1nc(N)c2nc(-c3ccccc3)c(N)nc2n1 [Triamterene] | 0.4903
CCOC1O[C@H]([C@@H](COCc2ccccc2)OCc2ccccc2)[C@H](OCc2ccccc2)[C@H]1O (stereo partly drawn) [Tribenoside] | −1.558
NS(=O)(=O)c1cc2c(cc1Cl)NC(C(Cl)Cl)NS2(=O)=O (stereo not drawn) [Trichlormethiazide] | −0.03362
CC[N+](CC)(CC)CCC(O)(c1ccccc1)C1CCCCC1.[Cl-] (stereo not drawn) [Tridihexethyl chloride] | −1.558
CN1CCN(CCCN2c3ccccc3Sc3ccc(C(F)(F)F)cc32)CC1 [Trifluoperazine dihydrochloride] | −1.866
CN(C)CCCN1c2ccccc2Sc2ccc(C(F)(F)F)cc21 [Triflupromazine hydrochloride] | −1.512
O=c1[nH]c(=O)n([C@H]2C[C@H](O)[C@@H](CO)O2)cc1C(F)(F)F [Trifluridine] | −0.7873
CC(=O)Oc1cc(C(F)(F)F)ccc1C(=O)O [Triflusal] | 1.139
C[n+]1cccc(C(=O)[O-])c1 [Trigonelline] | 0.9213
Cl.OC(CCN1CCCCC1)(c1ccccc1)C1CCCCC1 (stereo not drawn) [Trihexyphenidyl-D, L Hydrochloride] | −1.107
COc1ccc(CN2CCNCC2)c(OC)c1OC [Trimetazidine dihydrochloride] | 0.2189
CN1C(=O)OC(C)(C)C1=O [Trimethadione] | 1.08
COc1cc(C(=O)NCc2ccc(OCCN(C)C)cc2)cc(OC)c1OC [Trimethobenzamide hydrochloride] | −0.2719
COc1cc(Cc2cnc(N)nc2N)cc(OC)c1OC [Trimethoprim] | 0.2479
Cc1cc2cc3c(C)cc(=O)oc3c(C)c2o1 [Trioxsalen] | −0.1913
Cc1ccc(/C(=C\CN2CCCC2)c2ccccn2)cc1 [Triprolidine hydrochloride] | 0.2479
CO[C@H]1C[C@H](O[C@H]2[C@H](C)[C@@H](O[C@@H]3O[C@H](C)C[C@H](N(C)C)[C@H]3OC(C)=O)[C@@H](C)C[C@@]3(CO3)C(=O)[C@H](C)[C@@H](OC(C)=O)[C@@H](C)[C@@H](C)OC(=O)[C@@H]2C)O[C@@H](C)[C@@H]1OC(C)=O [Troleandomycin] | 1.067
Cc1c(C)c2c(c(C)c1O)CCC(C)(C(=O)O)O2 (stereo not drawn) [Trolox] | 2.048
CN1[C@@H]2CC[C@H]1C[C@@H](OC(=O)c1c[nH]c3ccccc13)C2 [Tropisetron HCl] | −0.7595

Compound | z.score.t
CO[C@@H]1C=C2CCN(C)[C@@H]2C2c3cc4c(cc3C(=O)OC21)OCO4.O=[N+]([O-])O (stereo partly drawn) [Ungerine nitrate] | 1.117
COc1ccccc1N1CCN(CCCNc2cc(=O)n(C)c(=O)n2C)CC1 [Urapidil hydrochloride] | 0.4105
C[C@H](CCC(=O)O)[C@H]1CC[C@H]2[C@@H]3[C@@H](O)C[C@@H]4C[C@H](O)CC[C@]4(C)[C@H]3CC[C@]12C [Urosiol] | −0.6988
C[C@H]1[C@H](C)CC[C@]2(C(=O)O)CC[C@]3(C)C(=CC[C@@H]4[C@@]5(C)CC[C@H](O)C(C)(C)[C@@H]5CC[C@]43C)[C@H]12 [Ursolic acid] | −0.765
Nc1ncnc2c1ncn2[C@@H]1O[C@H](CO)[C@@H](O)[C@@H]1O [Vidarabine] | 0.1019
C=CC(N)CCC(=O)O (stereo not drawn) [Vigabatrin] | −0.8304
CC[C@]12CCCN3CCc4c(n(c5ccccc45)[C@@](O)(C(=O)OC)C1)[C@@H]32 [Vincamine] | 0.08508
CCOC(=O)C1=C[C@]2(CC)CCCN3CCc4c(n1c1ccccc41)[C@@H]32 [Vinpocetine] | 0.6517
O=c1cc(-c2ccc(O)cc2)oc2c([C@@H]3O[C@H](CO)[C@@H](O)[C@H](O)[C@H]3O)c(O)cc(O)c12 [Vitexin] | −0.05622
O=C(NCCNCC(O)COc1ccc(O)cc1)N1CCOCC1 (stereo not drawn) [Xamoterol hemifumarate] | 0.81
Cc1cc(C(C)(C)C)cc(C)c1CC1=NCCN1 [Xylometazoline hydrochloride] | −0.827
COC(=O)[C@@H]1[C@H]2C[C@H]3c4[nH]c5ccccc5c4CCN3C[C@@H]2CC[C@@H]1O [Yohimbine hydrochloride] | 0.6763
Nc1ccn([C@H]2CC[C@@H](CO)O2)c(=O)n1 [Zalcitabine] | −0.9487
CCCOc1ccccc1-c1nc2nn[nH]c2c(=O)[nH]1 [Zaprinast] | −0.4341
COc1cc(-c2ccc(=O)[nH]n2)ccc1OC(F)F [Zardaverine] | −1.128
Cc1cn([C@H]2C[C@H](N=[N+]=[N-])[C@@H](CO)O2)c(=O)[nH]c1=O [Zidovudine, AZT] | −0.8478
CN(C)C/C=C(/c1ccc(Br)cc1)c1cccnc1 [Zimelidine dihydrochloride monohydrate] | 0.4064
Cc1cc(CC(=O)O)n(C)c1C(=O)c1ccc(Cl)cc1 [Zomepirac sodium salt] | −0.9042
OCCN1CCN(CC/C=C2/c3ccccc3Sc3ccc(Cl)cc32)CC1 [Zuclopenthixol hydrochloride] | −1.345
CCCCNC(=O)NS(=O)(=O)c1ccc(C)cc1 [tolbutamide, Tolbutamide, reference compound] | 2.089
(S)-(−)-Atenolol | 1.606

Compound | z.score.t
(S)-propranolol hydrochloride | 0.6803
Alverine citrate salt | −1.025
Beta-Escin | −0.5583
Carbinoxamine maleate salt | 0.07936
Clofilium tosylate | −0.6227
Dihydroergotoxine mesylate | 0.9377
Eburnamonine (−) | 1.516
Ifenprodil tartrate | −1.132
Iobenguane sulfate | 0.3845
Ketanserin tartrate hydrate | −1.137
Pizotifen malate | −0.2329
S(−)Eticlopride hydrochloride | −0.5169
Spiramycin | 0.7158
Terbutaline hemisulfate | −1.238
Thioproperazine dimesylate | −1.223
Timolol maleate salt | −0.6395
Trimeprazine tartrate | −0.411
Trimipramine maleate salt | 0.2361
Tropicamide | −0.1241
Verteporfin | −1.551
Vitamin K2 | −0.4141
